Experimental findings from the supplement of paper PMC10307832 are described below.

What all share (experiment): relative viability (nuclei count vs DMSO), 5 days (fraction); higher = more cells survive
Compound in the assay “VX-11e + Navitoclax”: CC1=CN=C(N=C1C2=CNC(=C2)C(=O)N[C@H](CO)C3=CC(=CC=C3)Cl)NC4=C(C=C(C=C4)F)Cl [VX-11e] + CC1(C)CCC(c2ccc(Cl)cc2)=C(CN2CCN(c3ccc(C(=O)NS(=O)(=O)c4ccc(N[C@H](CCN5CCOCC5)CSc5ccccc5)c(S(=O)(=O)C(F)(F)F)c4)cc3)CC2)C1 [Navitoclax] (partner 0.5 µM)
In a few lines:
(§1)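 Lung cancer cell lines in 1536-well plates were dosed by pin tool the day after seeding, either with one drug alone or with a fixed anchor-drug dose plus five library-drug doses (not always all listed) in √10 steps. After 5 days, cells were fixed and their nuclei stained in one step (final 0.05% Triton X-100, 1% formaldehyde, 1 ug/ml Hoechst), then counted on 4× images. Relative viability is the nuclei count in treated wells divided by that in vehicle wells. Values are medians of duplicate plates.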

Compound in the assay “VX-11e + Crizotinib”: CC1=CN=C(N=C1C2=CNC(=C2)C(=O)N[C@H](CO)C3=CC(=CC=C3)Cl)NC4=C(C=C(C=C4)F)Cl [VX-11e] + C[C@@H](Oc1cc(-c2cnn(C3CCNCC3)c2)cnc1N)c1c(Cl)ccc(F)c1Cl [Crizotinib] (partner 1 µM)
In a few lines:
as §1

Compound in the assay “VX-11e + Dasatinib”: CC1=CN=C(N=C1C2=CNC(=C2)C(=O)N[C@H](CO)C3=CC(=CC=C3)Cl)NC4=C(C=C(C=C4)F)Cl [VX-11e] + Cc1nc(Nc2ncc(C(=O)Nc3c(C)cccc3Cl)s2)cc(N2CCN(CCO)CC2)n1 [Dasatinib] (partner 0.075 µM)
In a few lines:
as §1

Compound in the assay “VX-11e + Vorinostat”: CC1=CN=C(N=C1C2=CNC(=C2)C(=O)N[C@H](CO)C3=CC(=CC=C3)Cl)NC4=C(C=C(C=C4)F)Cl [VX-11e] + O=C(CCCCCCC(=O)Nc1ccccc1)NO [Vorinostat] (partner 1 µM)
In a few lines: as §1

Regarding COR-L23, the relative viability with VX-11e + Navitoclax (first compound 0.04 µM) turned out to be 1.25; with VX-11e + Navitoclax (first compound 0.1265 µM), 1.13; in the assay with VX-11e + Navitoclax (first compound 0.4 µM), 0.924; in the assay with VX-11e + Navitoclax (first compound 1.265 µM) it was 0.681; with VX-11e + Navitoclax (first compound 4 µM), 0.305; with VX-11e + Crizotinib (first compound 0.04 µM), 0.708. Moreover, the relative viability came to 0.627 in the assay with VX-11e + Crizotinib (first compound 0.1265 µM); 0.646 with VX-11e + Crizotinib (first compound 0.4 µM); 0.497 with VX-11e + Crizotinib (first compound 1.265 µM); 0.211 in the assay with VX-11e + Crizotinib (first compound 4 µM); 0.486 in the assay with VX-11e + Dasatinib (first compound 0.04 µM); 0.453 with VX-11e + Dasatinib (first compound 0.1265 µM). Further, the relative viability in the assay with VX-11e + Dasatinib (first compound 0.4 µM) was found to be 0.442; with VX-11e + Dasatinib (first compound 1.265 µM) it was 0.355; in the assay with VX-11e + Dasatinib (first compound 4 µM), 0.208; in the assay with VX-11e + Vorinostat (first compound 0.04 µM), 0.31; with VX-11e + Vorinostat (first compound 0.1265 µM) it was 0.436; with VX-11e + Vorinostat (first compound 0.4 µM) it was 0.592. Moreover, the relative viability with VX-11e + Vorinostat (first compound 1.265 µM) is 0.41; in the assay with VX-11e + Vorinostat (first compound 4 µM), 0.262.

As to NCI-H1755, the relative viability in the assay with VX-11e + Navitoclax (first compound 0.04 µM) worked out at 1.06; with VX-11e + Navitoclax (first compound 0.1265 µM), 0.956; with VX-11e + Navitoclax (first compound 0.4 µM) it was 0.972; with VX-11e + Navitoclax (first compound 1.265 µM) it was 0.956; with VX-11e + Navitoclax (first compound 4 µM) it was 0.558; with VX-11e + Crizotinib (first compound 0.04 µM) it was 0.905. Moreover, the relative viability in the assay with VX-11e + Crizotinib (first compound 0.1265 µM) turned out to be 0.849; with VX-11e + Crizotinib (first compound 0.4 µM), 0.845; with VX-11e + Crizotinib (first compound 1.265 µM), 0.873; in the assay with VX-11e + Crizotinib (first compound 4 µM) it was 0.491; in the assay with VX-11e + Dasatinib (first compound 0.04 µM) it was 0.444; with VX-11e + Dasatinib (first compound 0.1265 µM), 0.392. The relative viability with VX-11e + Dasatinib (first compound 0.4 µM) came to 0.413; with VX-11e + Dasatinib (first compound 1.265 µM), 0.398; with VX-11e + Dasatinib (first compound 4 µM), 0.298; with VX-11e + Vorinostat (first compound 0.04 µM) it was 0.795; with VX-11e + Vorinostat (first compound 0.1265 µM), 0.686; with VX-11e + Vorinostat (first compound 0.4 µM) it was 0.782. Further, the figures for the relative viability in the assay with VX-11e + Vorinostat (first compound 1.265 µM) and in the assay with VX-11e + Vorinostat (first compound 4 µM) were 0.764 and 0.598, respectively.

Consider NCI-H460, for which the relative viability worked out at 1.37 in the assay with VX-11e + Navitoclax (first compound 0.04 µM); 1.16 in the assay with VX-11e + Navitoclax (first compound 0.1265 µM); 1.13 with VX-11e + Navitoclax (first compound 0.4 µM); 0.542 with VX-11e + Navitoclax (first compound 1.265 µM); 0.0727 in the assay with VX-11e + Navitoclax (first compound 4 µM); 1.18 with VX-11e + Crizotinib (first compound 0.04 µM). The relative viability came out at 0.907 with VX-11e + Crizotinib (first compound 0.1265 µM); 0.784 with VX-11e + Crizotinib (first compound 0.4 µM); 0.56 with VX-11e + Crizotinib (first compound 1.265 µM); 0.0797 with VX-11e + Crizotinib (first compound 4 µM); 0.476 in the assay with VX-11e + Dasatinib (first compound 0.04 µM); 0.515 with VX-11e + Dasatinib (first compound 0.1265 µM). Besides, the relative viability with VX-11e + Dasatinib (first compound 0.4 µM) is 0.23; in the assay with VX-11e + Dasatinib (first compound 1.265 µM), 0.266; with VX-11e + Dasatinib (first compound 4 µM), 0.0901; with VX-11e + Vorinostat (first compound 0.04 µM) it was 0.855; with VX-11e + Vorinostat (first compound 0.1265 µM) it was 0.693; with VX-11e + Vorinostat (first compound 0.4 µM), 0.692. Also, the relative viability with VX-11e + Vorinostat (first compound 1.265 µM) came to 0.522; in the assay with VX-11e + Vorinostat (first compound 4 µM), 0.0489.

As for COR-L 105, the relative viability with VX-11e + Navitoclax (first compound 0.04 µM) was 0.591; in the assay with VX-11e + Navitoclax (first compound 0.1265 µM), 0.759; in the assay with VX-11e + Navitoclax (first compound 0.4 µM) it was 0.55; in the assay with VX-11e + Navitoclax (first compound 1.265 µM), 0.692; in the assay with VX-11e + Navitoclax (first compound 4 µM) it was 0.284; with VX-11e + Crizotinib (first compound 0.04 µM), 0.779. In addition, the relative viability was 0.705 with VX-11e + Crizotinib (first compound 0.1265 µM); 0.547 with VX-11e + Crizotinib (first compound 0.4 µM); 0.369 in the assay with VX-11e + Crizotinib (first compound 1.265 µM); 0.292 with VX-11e + Crizotinib (first compound 4 µM); 0.316 with VX-11e + Dasatinib (first compound 0.04 µM); 0.344 with VX-11e + Dasatinib (first compound 0.1265 µM). Further, the relative viability was found to be 0.33 in the assay with VX-11e + Dasatinib (first compound 0.4 µM); 0.198 with VX-11e + Dasatinib (first compound 1.265 µM); 0.229 with VX-11e + Dasatinib (first compound 4 µM); 0.756 with VX-11e + Vorinostat (first compound 0.04 µM); 0.857 with VX-11e + Vorinostat (first compound 0.1265 µM); 0.731 with VX-11e + Vorinostat (first compound 0.4 µM). Besides, the relative viability with VX-11e + Vorinostat (first compound 1.265 µM) came to 0.741; with VX-11e + Vorinostat (first compound 4 µM) it was 0.418.

Regarding HCC-827, the relative viability with VX-11e + Navitoclax (first compound 0.04 µM) was determined as 1.07; with VX-11e + Navitoclax (first compound 0.1265 µM) it was 1.02; with VX-11e + Navitoclax (first compound 0.4 µM), 0.992; with VX-11e + Navitoclax (first compound 1.265 µM), 1.24; in the assay with VX-11e + Navitoclax (first compound 4 µM) it was 0.919; with VX-11e + Crizotinib (first compound 0.04 µM) it was 1.01. Moreover, the relative viability stood at 0.953 with VX-11e + Crizotinib (first compound 0.1265 µM); 0.888 in the assay with VX-11e + Crizotinib (first compound 0.4 µM); 0.958 with VX-11e + Crizotinib (first compound 1.265 µM); 0.839 in the assay with VX-11e + Crizotinib (first compound 4 µM); 0.297 with VX-11e + Dasatinib (first compound 0.04 µM); 0.292 with VX-11e + Dasatinib (first compound 0.1265 µM). The relative viability worked out at 0.257 in the assay with VX-11e + Dasatinib (first compound 0.4 µM); 0.406 with VX-11e + Dasatinib (first compound 1.265 µM); 0.246 in the assay with VX-11e + Dasatinib (first compound 4 µM); 0.924 with VX-11e + Vorinostat (first compound 0.04 µM); 0.846 with VX-11e + Vorinostat (first compound 0.1265 µM); 1.03 with VX-11e + Vorinostat (first compound 0.4 µM). Also, the relative viability was determined as 0.918 with VX-11e + Vorinostat (first compound 1.265 µM) and 0.761 in the assay with VX-11e + Vorinostat (first compound 4 µM).

Consider NCI-H2228, for which the relative viability with VX-11e + Navitoclax (first compound 0.04 µM) came out at 0.902; with VX-11e + Navitoclax (first compound 0.1265 µM) it was 0.73; in the assay with VX-11e + Navitoclax (first compound 0.4 µM), 1.08; with VX-11e + Navitoclax (first compound 1.265 µM), 0.477; with VX-11e + Navitoclax (first compound 4 µM), 0.162; in the assay with VX-11e + Crizotinib (first compound 0.04 µM), 0.533. For the same cell line, the relative viability with VX-11e + Crizotinib (first compound 0.1265 µM) came out at 0.524; with VX-11e + Crizotinib (first compound 0.4 µM), 0.463; with VX-11e + Crizotinib (first compound 1.265 µM), 0.263; in the assay with VX-11e + Crizotinib (first compound 4 µM), 0.303; in the assay with VX-11e + Dasatinib (first compound 0.04 µM), 0.591; in the assay with VX-11e + Dasatinib (first compound 0.1265 µM), 0.578. For the same cell line, the relative viability with VX-11e + Dasatinib (first compound 1.265 µM) worked out at 0.351; with VX-11e + Dasatinib (first compound 4 µM), 0.188; with VX-11e + Vorinostat (first compound 0.04 µM) it was 0.646; with VX-11e + Vorinostat (first compound 0.1265 µM) it was 0.66; with VX-11e + Vorinostat (first compound 0.4 µM), 0.617; with VX-11e + Vorinostat (first compound 1.265 µM), 0.58. In addition, the relative viability with VX-11e + Vorinostat (first compound 4 µM) was 0.399.
